Source: the NIST ThermoML archive (doi:10.1016/j.jct.2015.01.004)
Where “and” joins values, the source holds several entries; their conditions need not be identical. Equal entries are not always repeated.

Assay: molar heat capacity at constant pressure; xn = mol fraction of the nth substance listed
Details: 100 kPa

[Si] [silicon] + [Li]
Details | molar heat capacity at constant pressure
660 K, Crystal of intercomponent compound 1, relaxation calorimetry + DSC, x2 = 0.81 | 29.4 J/K/mol
660 K, Crystal of intercomponent compound 2, relaxation calorimetry + DSC, x2 = 0.804 | 30.54 J/K/mol
661.54 K, Crystal of intercomponent compound 2, Small sample (50 mg) DSC, x2 = 0.804 | 30.1 J/K/mol and 30.48 J/K/mol
661.72 K, Crystal of intercomponent compound 1, Small sample (50 mg) DSC, x2 = 0.81 | 29.4 J/K/mol
661.75 K, Crystal of intercomponent compound 1, Small sample (50 mg) DSC, x2 = 0.81 | 29.72 J/K/mol
671.45 K, Crystal of intercomponent compound 2, Small sample (50 mg) DSC, x2 = 0.804 | 30.27 J/K/mol and 30.68 J/K/mol
671.64 K, Crystal of intercomponent compound 1, Small sample (50 mg) DSC, x2 = 0.81 | 29.62 J/K/mol
671.66 K, Crystal of intercomponent compound 1, Small sample (50 mg) DSC, x2 = 0.81 | 29.83 J/K/mol
680 K, Crystal of intercomponent compound 1, relaxation calorimetry + DSC, x2 = 0.81 | 29.94 J/K/mol
680 K, Crystal of intercomponent compound 2, relaxation calorimetry + DSC, x2 = 0.804 | 30.97 J/K/mol
681.36 K, Crystal of intercomponent compound 2, Small sample (50 mg) DSC, x2 = 0.804 | 30.52 J/K/mol and 30.84 J/K/mol
681.56 K, Crystal of intercomponent compound 1, Small sample (50 mg) DSC, x2 = 0.81 | 29.62 J/K/mol
681.57 K, Crystal of intercomponent compound 1, Small sample (50 mg) DSC, x2 = 0.81 | 30.16 J/K/mol
691.29 K, Crystal of intercomponent compound 2, Small sample (50 mg) DSC, x2 = 0.804 | 30.56 J/K/mol and 31.08 J/K/mol
691.47 K, Crystal of intercomponent compound 1, Small sample (50 mg) DSC, x2 = 0.81 | 29.94 J/K/mol
691.48 K, Crystal of intercomponent compound 1, Small sample (50 mg) DSC, x2 = 0.81 | 30.38 J/K/mol
700 K, Crystal of intercomponent compound 1, relaxation calorimetry + DSC, x2 = 0.81 | 30.53 J/K/mol
700 K, Crystal of intercomponent compound 2, relaxation calorimetry + DSC, x2 = 0.804 | 31.4 J/K/mol
701.21 K, Crystal of intercomponent compound 2, Small sample (50 mg) DSC, x2 = 0.804 | 31.04 J/K/mol and 31.36 J/K/mol
701.37 K, Crystal of intercomponent compound 1, Small sample (50 mg) DSC, x2 = 0.81 | 30.27 J/K/mol
701.39 K, Crystal of intercomponent compound 1, Small sample (50 mg) DSC, x2 = 0.81 | 30.6 J/K/mol
711.13 K, Crystal of intercomponent compound 2, Small sample (50 mg) DSC, x2 = 0.804 | 31.38 J/K/mol and 31.59 J/K/mol
711.28 K, Crystal of intercomponent compound 1, Small sample (50 mg) DSC, x2 = 0.81 | 30.6 J/K/mol
711.3 K, Crystal of intercomponent compound 1, Small sample (50 mg) DSC, x2 = 0.81 | 30.82 J/K/mol
720 K, Crystal of intercomponent compound 1, relaxation calorimetry + DSC, x2 = 0.81 | 31.18 J/K/mol
720 K, Crystal of intercomponent compound 2, relaxation calorimetry + DSC, x2 = 0.804 | 31.84 J/K/mol
721.05 K, Crystal of intercomponent compound 2, Small sample (50 mg) DSC, x2 = 0.804 | 31.75 J/K/mol and 32.03 J/K/mol
721.2 K, Crystal of intercomponent compound 1, Small sample (50 mg) DSC, x2 = 0.81 | 30.49 J/K/mol
721.22 K, Crystal of intercomponent compound 1, Small sample (50 mg) DSC, x2 = 0.81 | 31.15 J/K/mol
730.97 K, Crystal of intercomponent compound 2, Small sample (50 mg) DSC, x2 = 0.804 | 32.1 J/K/mol and 32.36 J/K/mol
731.12 K, Crystal of intercomponent compound 1, Small sample (50 mg) DSC, x2 = 0.81 | 31.04 J/K/mol
731.13 K, Crystal of intercomponent compound 1, Small sample (50 mg) DSC, x2 = 0.81 | 31.37 J/K/mol
740 K, Crystal of intercomponent compound 1, relaxation calorimetry + DSC, x2 = 0.81 | 31.88 J/K/mol
740 K, Crystal of intercomponent compound 2, relaxation calorimetry + DSC, x2 = 0.804 | 32.3 J/K/mol
740.89 K, Crystal of intercomponent compound 2, Small sample (50 mg) DSC, x2 = 0.804 | 32.38 J/K/mol and 32.64 J/K/mol
741.03 K, Crystal of intercomponent compound 1, Small sample (50 mg) DSC, x2 = 0.81 | 31.26 J/K/mol
741.04 K, Crystal of intercomponent compound 1, Small sample (50 mg) DSC, x2 = 0.81 | 31.7 J/K/mol
750.81 K, Crystal of intercomponent compound 2, Small sample (50 mg) DSC, x2 = 0.804 | 32.68 J/K/mol and 32.92 J/K/mol
750.95 K, Crystal of intercomponent compound 1, Small sample (50 mg) DSC, x2 = 0.81 | 31.81 J/K/mol
750.96 K, Crystal of intercomponent compound 1, Small sample (50 mg) DSC, x2 = 0.81 | 32.14 J/K/mol
760 K, Crystal of intercomponent compound 1, relaxation calorimetry + DSC, x2 = 0.81 | 32.63 J/K/mol
760 K, Crystal of intercomponent compound 2, relaxation calorimetry + DSC, x2 = 0.804 | 32.82 J/K/mol
760.73 K, Crystal of intercomponent compound 2, Small sample (50 mg) DSC, x2 = 0.804 | 33.14 J/K/mol and 33.47 J/K/mol
760.87 K, Crystal of intercomponent compound 1, Small sample (50 mg) DSC, x2 = 0.81 | 32.14 J/K/mol and 32.58 J/K/mol
770.64 K, Crystal of intercomponent compound 2, Small sample (50 mg) DSC, x2 = 0.804 | 33.77 J/K/mol and 34.02 J/K/mol
770.79 K, Crystal of intercomponent compound 1, Small sample (50 mg) DSC, x2 = 0.81 | 33.23 J/K/mol and 33.34 J/K/mol
771.71 K, Crystal of intercomponent compound 1, Small sample (50 mg) DSC, x2 = 0.81 | 33.67 J/K/mol
773.69 K, Crystal of intercomponent compound 1, Small sample (50 mg) DSC, x2 = 0.81 | 33.78 J/K/mol
775.67 K, Crystal of intercomponent compound 1, Small sample (50 mg) DSC, x2 = 0.81 | 33.89 J/K/mol
777.66 K, Crystal of intercomponent compound 1, Small sample (50 mg) DSC, x2 = 0.81 | 34.22 J/K/mol
779.64 K, Crystal of intercomponent compound 1, Small sample (50 mg) DSC, x2 = 0.81 | 34.39 J/K/mol
780 K, Crystal of intercomponent compound 1, relaxation calorimetry + DSC, x2 = 0.81 | 33.45 J/K/mol
780 K, Crystal of intercomponent compound 2, relaxation calorimetry + DSC, x2 = 0.804 | 33.49 J/K/mol
780.56 K, Crystal of intercomponent compound 2, Small sample (50 mg) DSC, x2 = 0.804 | 34.41 J/K/mol and 34.69 J/K/mol
780.7 K, Crystal of intercomponent compound 1, Small sample (50 mg) DSC, x2 = 0.81 | 34 J/K/mol
780.71 K, Crystal of intercomponent compound 1, Small sample (50 mg) DSC, x2 = 0.81 | 34.22 J/K/mol
781.63 K, Crystal of intercomponent compound 1, Small sample (50 mg) DSC, x2 = 0.81 | 34.88 J/K/mol
783.61 K, Crystal of intercomponent compound 1, Small sample (50 mg) DSC, x2 = 0.81 | 34.99 J/K/mol
785.59 K, Crystal of intercomponent compound 1, Small sample (50 mg) DSC, x2 = 0.81 | 35.21 J/K/mol
787.58 K, Crystal of intercomponent compound 1, Small sample (50 mg) DSC, x2 = 0.81 | 35.32 J/K/mol
789.57 K, Crystal of intercomponent compound 1, Small sample (50 mg) DSC, x2 = 0.81 | 35.32 J/K/mol
790.48 K, Crystal of intercomponent compound 2, Small sample (50 mg) DSC, x2 = 0.804 | 34.65 J/K/mol and 35.21 J/K/mol
790.61 K, Crystal of intercomponent compound 1, Small sample (50 mg) DSC, x2 = 0.81 | 34.99 J/K/mol
790.63 K, Crystal of intercomponent compound 1, Small sample (50 mg) DSC, x2 = 0.81 | 34.55 J/K/mol
791.55 K, Crystal of intercomponent compound 1, Small sample (50 mg) DSC, x2 = 0.81 | 35.54 J/K/mol
793.53 K, Crystal of intercomponent compound 1, Small sample (50 mg) DSC, x2 = 0.81 | 35.76 J/K/mol
795.51 K, Crystal of intercomponent compound 1, Small sample (50 mg) DSC, x2 = 0.81 | 36.31 J/K/mol
797.49 K, Crystal of intercomponent compound 1, Small sample (50 mg) DSC, x2 = 0.81 | 36.96 J/K/mol
800 K, Crystal of intercomponent compound 1, relaxation calorimetry + DSC, x2 = 0.81 | 34.34 J/K/mol
800 K, Crystal of intercomponent compound 2, relaxation calorimetry + DSC, x2 = 0.804 | 34.61 J/K/mol
800.39 K, Crystal of intercomponent compound 2, Small sample (50 mg) DSC, x2 = 0.804 | 35.13 J/K/mol and 35.58 J/K/mol
810.3 K, Crystal of intercomponent compound 2, Small sample (50 mg) DSC, x2 = 0.804 | 35.47 J/K/mol and 36.02 J/K/mol
820 K, Crystal of intercomponent compound 2, relaxation calorimetry + DSC, x2 = 0.804 | 36.83 J/K/mol
820.22 K, Crystal of intercomponent compound 2, Small sample (50 mg) DSC, x2 = 0.804 | 36.24 J/K/mol and 36.35 J/K/mol
830.13 K, Crystal of intercomponent compound 2, Small sample (50 mg) DSC, x2 = 0.804 | 38.35 J/K/mol and 38.57 J/K/mol
840 K, Crystal of intercomponent compound 2, relaxation calorimetry + DSC, x2 = 0.804 | 41.72 J/K/mol
840.04 K, Crystal of intercomponent compound 2, Small sample (50 mg) DSC, x2 = 0.804 | 41.23 J/K/mol and 41.78 J/K/mol
849.95 K, Crystal of intercomponent compound 2, Small sample (50 mg) DSC, x2 = 0.804 | 45.22 J/K/mol and 47.32 J/K/mol
859.87 K, Crystal of intercomponent compound 2, Small sample (50 mg) DSC, x2 = 0.804 | 51.54 J/K/mol and 53.53 J/K/mol
860 K, Crystal of intercomponent compound 2, relaxation calorimetry + DSC, x2 = 0.804 | 52.81 J/K/mol
869.79 K, Crystal of intercomponent compound 2, Small sample (50 mg) DSC, x2 = 0.804 | 60.18 J/K/mol and 65.17 J/K/mol
